What was measured:
[1] = tested on: PC9 cells; assay: cells; format: cell-based, human
[2] = tested on: H1650 cells; assay: cells; format: cell-based, human
[3] = tested on: PC9/gef B4 cells; assay: cells; format: cell-based, human; conditions: for resistance factor of PC9/gef B4 to PC9 cells: IC50 ratio, number in brackets
[4] = tested on: H1975 cells; assay: cells; format: cell-based, human
[5] = tested on: H1299 cells; assay: cells; format: cell-based, human
[6] = tested on: A549 cells; assay: cells; format: cell-based, human
[7] = tested on: H460 cells; assay: cells; format: cell-based, human
[8] = tested on: CL1-5 cells; assay: alamarBlue in vitro cytotoxicity assay; format: cell-based, human
[9] = tested on: CL100 cells; assay: cells; format: cell-based, human
[10] = tested on: CL97 cells; assay: cells; format: cell-based, human
[11] = tested on: CL141T cells; assay: cells; format: cell-based, human
[12] = tested on: H1975 xenograft; assay: H1975 xenograft in nude mice; format: in vivo; conditions: i.v., BO-1978 40 mg/kg, gefitinib 10 mg/kg, daily for 5 consecutive days
[13] = tested on: H1650-Luc cells; assay: orthotopic lung tumor model, IVIS; format: in vivo, nude mice; conditions: BO-1978 40 mg/kg, gefitinib 10 mg/kg, daily for 5 consecutive days
[14] = tested on: PC9 xenograft; assay: PC9 xenograft in nude mice; format: in vivo; conditions: i.v., BO-1978 40 mg/kg, gefitinib 10 mg/kg, daily for 5 consecutive days
[15] = tested on: H1650 xenograft; assay: H1650 xenograft in nude mice; format: in vivo; conditions: i.v., BO-1978 40 mg/kg, gefitinib 10 mg/kg, daily for 5 consecutive days
[16] = tested on: PC9/gef B4 xenograft; assay: PC9/gef B4 xenograft in nude mice; format: in vivo; conditions: i.v., BO-1978 40 mg/kg, gefitinib 10 mg/kg, daily for 5 consecutive days
[17] = tested on: MES-SA/dx5; assay: cytotoxicity in multiple drug-resistant and cisplatin-resistant cells; format: cell-based
[18] = tested on: MES-SA; assay: as above; format: cell-based
[19] = tested on: NTUB1; assay: as above; format: cell-based
[20] = tested on: H460 xenograft; assay: H460 xenograft in nude mice; format: in vivo; conditions: BO-1978 40 mg/kg QDx5, cisplatin 6 mg/kg every 4 days x3
[21] = tested on: NTUB1/P; assay: cytotoxicity in multiple drug-resistant and cisplatin-resistant cells; format: cell-based

COc1cc([C@@H]2c3cc4c(cc3[C@@H](O[C@@H]3O[C@@H]5CO[C@@H](C)O[C@H]5[C@H](O)[C@H]3O)[C@H]3COC(=O)[C@H]23)OCO4)cc(OC)c1O [Etoposide]
IC50 ([1]; Homo sapiens, PC-9, 72 h): 19.3 ± 6.28 µM
IC50 ([2]; Homo sapiens, NCI-H1650, 72 h): 32.5 ± 17.6 µM
IC50 ([3]; Homo sapiens, 72 h): 36.7 ± 20.5 µM
resistance factor of PC9/gef B4 to PC9 cells [3]: 1.90
IC50 ([4]; Homo sapiens, NCI-H1975, 72 h): 14.1 ± 2.9 µM
IC50 ([5]; Homo sapiens, NCI-H1299, 72 h): 15.6 ± 7.45 µM
IC50 ([6]; Homo sapiens, A549, 72 h): 22.4 ± 14.4 µM
IC50 ([7]; Homo sapiens, NCI-H460, 72 h): 7.31 ± 2.56 µM
IC50 ([8]; Homo sapiens, CL1-5, 72 h): 12.6 ± 3.93 µM
IC50 ([9]; Homo sapiens, 72 h): 4.3 ± 3.87 µM
IC50 ([10]; Homo sapiens, CL97, 72 h): 24.4 ± 17.4 µM
IC50 ([11]; Homo sapiens, 72 h): 23.3 ± 3.34 µM

COc1cc2ncnc(Nc3ccc(F)c(Cl)c3)c2cc1OCCCN1CCOCC1 [Gefitinib, reference compound]
suppression of xenograft tumor growth [12]: ~1%
orthotopic growth of H1650-Luc cells [13]: resistant to gefitinib treatment alone
suppression of xenograft tumor growth [14]: approximately 36%
suppression of xenograft tumor growth [15]: ~51%
suppression of xenograft tumor growth [16]: ~49%

N.N.[Cl][Pt][Cl] [Cisplatin]
IC50 ([1]; PC9, 72 hours, alamarBlue): 16.4 ± 3.29 µM
IC50 ([2]; H1650, 72 hours, alamarBlue): 36.5 ± 8.14 µM
IC50 ([17]; MES-SA/dx5): 2.27 ± 0.73 µM
resistance factor ([17]; MES-SA/dx5 vs MES-SA): 1.25 x
resistance factor of PC9/gef B4 to PC9 cells [3]: 2.10
IC50 ([3]; PC9/gef B4, 72 hours, alamarBlue): 34.3 ± 1.62 µM
IC50 [18]: 1.82 ± 0.66 µM
IC50 ([4]; H1975, 72 hours, alamarBlue): 16.1 ± 4.03 µM
IC50 ([5]; H1299, 72 hours, alamarBlue): 16.5 ± 0.9 µM
IC50 ([6]; A549, 72 hours, alamarBlue): 31.1 ± 3.03 µM
IC50 [19]: 2.97 ± 1.43 µM
IC50 ([7]; H460, 72 hours, alamarBlue): 9.94 ± 0.47 µM
IC50 ([8]; CL1-5, 72 hours, alamarBlue): 2.82 ± 0.28 µM
IC50 ([9]; CL100, 72 hours, alamarBlue): 6.21 ± 3.64 µM
IC50 ([10]; CL97, 72 hours, alamarBlue): 14.7 ± 0.34 µM
body weight loss ([20]; H460 xenograft mice): approximately 12%
H460 xenograft tumor size suppressed/reduced to ([20]; i.v.): 52%
IC50 ([21]; NTUB1/P): 62.1 ± 15.3 µM
resistance factor ([21]; NTUB1/P vs NTUB1): 20.9 x
IC50 ([11]; 72 hours, alamarBlue): 2.8 ± 0.36 µM

— article PMC4840272 (Neoplasia (New York, N.Y.), 2016)
